Source: patent EP4206196A1, “PYRIMIDINE SUBSTITUTED DERIVATIVES AS TYK2 INHIBITORS” (Almirall S.A., priority 2021, dated 2023)
Several values for one entry are separate records, joined by “and”; a condition that tells them apart may be missing. Identical values can stand only once.

Experiments:
[1] = system: STAT1/3 through TYK2/JAK1; assay: IFNa induced STAT phosphorylation in HEK293 cells (SIE-bla reporter gene); format: cell-based; details: Homo sapiens, HEK293; HEK293T-sie-bla cells, IFNa at EC80, 4 hours; read-out: Inhibition of IFNa induced STAT phosphorylation HEK293 cells IC50
In short: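 HEK293T cells carrying a SIE-driven β-lactamase reporter were co-treated with compound (1/5 serial dilution, 10 points, 0.1% DMSO final) and IFNa at EC80 for 4 h at 37°C. β-Lactamase substrate was added to stop the stimulation, followed by overnight dark incubation and FRET read. IC50 from a four-parameter logistic fit.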

[2] = molecular target: T1, TYK2 (JH2domain-pseudokinase) (Homo sapiens, UniProt P29597); assay: TYK2 JH2 domain binding assay (KINOMEscan)
T1 construct: TYK2 (JH2domain-pseudokinase)-tagged T7 phage strains were prepared in an E. coli host derived from the BL21 strain; made in house; host or cells: E. coli BL21-derived host (T7 phage) or HEK-293 cells
T1 sequence (P29597 589-875 limits assumed): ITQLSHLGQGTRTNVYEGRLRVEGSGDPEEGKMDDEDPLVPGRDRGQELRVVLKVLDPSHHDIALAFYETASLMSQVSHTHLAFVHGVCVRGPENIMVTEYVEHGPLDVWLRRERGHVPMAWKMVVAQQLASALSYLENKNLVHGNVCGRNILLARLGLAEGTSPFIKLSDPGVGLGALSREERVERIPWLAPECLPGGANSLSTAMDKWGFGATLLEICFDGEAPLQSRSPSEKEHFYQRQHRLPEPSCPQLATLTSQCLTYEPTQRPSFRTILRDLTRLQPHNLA
In short: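 Competition binding of DNA-tagged TYK2 JH2 pseudokinase domain against immobilised affinity ligand, 1 h at room temperature in SeaBlock/PBS/Tween/DTT buffer with about 1% DMSO. Bound kinase eluted and quantified by qPCR. Kd taken from 11-point 3-fold series, usually 30,000 nM top, fitted by Levenberg-Marquardt nonlinear least squares.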

STAT6 through JAK1/JAK3 = assay: IL4 induced STAT phosphorylation in Ramos cells (STAT6-bla reporter gene); format: cell-based; details: for inhibition at 5 µM / inhibition at 25 µM: Homo sapiens, Ramos; for inhibition at 25 µM: compound concentration 25 µM
Description: Stimulation of RAMOS cells with interleukine IL-4 activates the signaling pathway of STAT6 through JAK1/JAK3. In this assay, measurement of the activity of the reporter gene β-lactamase expression was used as the readout.
Ramos STAT6-bla RA-1 cell line were purchased from Life Technologies (ref. #K1243) and cultured as specified by the provider. A number of 30.000 cells per well (35 µl) were plated in a 384-well plate (Corning ref.# 3712) and cultured overnight at 37°C with 5% CO2 in a complete Optimem media (Life Technologies ref. #11058-021) containing 556 µg/mL CD40 (Life Technologies ref. #PHP0025), 0.5% (v/v) heat inactivated FBS (Life Technologies ref. #10082-147), 10 µM non-essential aminoacids NEAA (Sigma ref. #M7145), 100 µM Sodium Pyruvate (Gibco ref. #11360-039) and 100 U/mL Penicillin (Sigma ref. #P0781). Compounds were initially dissolved in 100% DMSO. Compound curves were then prepared using a 1/5 serial dilution (10 dilutions). The dilutions were directly diluted in complete Optimem media without CD40 at 40-fold their final concentration in 20% DMSO. IL-4 initial solution (Prepotech ref. #200-04) was prepared at 10-fold its EC80 in complete Optimem media without CD40. Compounds and IL-4 were added simultaneously to the wells with cells and incubated during 4 hours at 37°C (the final DMSO was 0.1%). The β-lactamase substrate (LifeTechnologies ref.#K1138) was prepared at 6-fold its final concentration as specified by the provider. Then 10 µL of the mixture was added to the wells to stop the stimulation. Plate was left in the dark over-night. Then a FRET reading was performed on an appropriate plate reader.
All experiments were analysed using an ExcelFit template and the four-parameter log equation. As % vs compound concentration. TABLE 3: Inhibition of IL4 induced STAT phosphorylation in Ramos cells.

IC50 [1]	Kd [2]	SMILES	inhibition at 5 µM (STAT6 through JAK1/JAK3; compound concentration 5 µM)	% Inhibition of IL4 induced STAT phosphorylation Ramos cells (STAT6 through JAK1/JAK3; compound concentration 5 µM, 5 µM)	inhibition at 25 µM (STAT6 through JAK1/JAK3)
< 10 nM	< 0.2 nM	Cc1cc(Nc2cc(Nc3ncc(-c4cnn(C)c4C)cc3N(C)S(C)(=O)=O)ncn2)ncc1F [Example 103, N-[5-(1,5-dimethylpyrazol-4-yl)-2-[[6-[(5-fluoro-4-methyl-2-pyridyl)amino]pyrimidin-4-yl]amino]-3-pyridyl]-N-methyl-methanesulfonamide]	49%	–	–
10 to 100 nM	< 0.2 nM	COc1c(Nc2cc(Nc3cc(C)nc(C)n3)ncn2)cccc1-c1noc(C)n1 [Example 37, N4-(2,6-dimethylpyrimidin-4-yl)-N6-[2-methoxy-3-(5-methyl-1,2,4-oxadiazol-3-yl)phenyl]pyrimidine-4,6-diamine]	44%	–	–
< 10 nM	< 0.2 nM	COc1c(-c2ncn(C)n2)ccnc1Nc1cc(Nc2cc(C)nc(C)n2)ncn1 [Example 119, N6-(2,6-dimethylpyrimidin-4-yl)-N4-[3-methoxy-4-(1-methyl-1,2,4-triazol-3-yl)-2-pyridyl]pyrimidine-4,6-diamine]	47%	–	–
< 10 nM	< 0.2 nM	Cc1cc(Nc2cc(Nc3ccc(C4CC4)cc3N(C)S(C)(=O)=O)ncn2)nc(C)n1 [Example 70, N-[5-cyclopropyl-2-[[6-[(2,6-dimethylpyrimidin-4-yl)amino]pyrimidin-4-yl]amino]phenyl]-N-methyl-methanesulfonamide]	–	78% and 55%	–
< 10 nM	< 0.2 nM	Cc1cc(Nc2cc(Nc3ncc(-c4cnn(C)c4C)cc3N(C)S(C)(=O)=O)ncn2)nc(C)n1 [Example 124, N-[5-(1,5-dimethylpyrazol-4-yl)-2-[[6-[(2,6-dimethylpyrimidin-4-yl)amino]pyrimidin-4-yl]amino]-3-pyridyl]-N-methyl-methanesulfonamide]	50%	–	–
10 to 100 nM	< 0.2 nM	COc1cc(-c2cnn(C)c2C)ccc1Nc1cc(Nc2cc(C)nc(C)n2)ncn1 [Example 80, N6-[4-(1,5-dimethylpyrazol-4-yl)-2-methoxy-phenyl]-N4-(2,6-dimethylpyrimidin-4-yl)pyrimidine-4,6-diamine]	47%	–	–
10 to 100 nM	0.2 to 1 nM	COc1c(Nc2cc(Nc3cc(C)nc(C)n3)ncn2)cccc1-c1ncn(C)n1 [Example 4, N6-(2,6-dimethylpyrimidin-4-yl)-N4-[2-methoxy-3-(1-methyl-1,2,4-triazol-3-yl)phenyl]pyrimidine-4,6-diamine]	33%	–	–
100 to 1000 nM	1 to 10 nM	COc1c(Nc2cc(NC(=O)C3CC3)ncn2)cccc1-c1ncn(C)n1 [Example 1, N-[6-[2-methoxy-3-(1-methyl-1,2,4-triazol-3-yl)anilino]pyrimidin-4-yl]cyclopropanecarboxamide]	25%	–	–
100 to 1000 nM	< 0.2 nM	Cc1cc(Nc2cc(Nc3ncc(-c4cnn(C)c4C)cc3N(C)S(C)(=O)=O)ncn2)ncn1 [Example 135, N-[5-(1,5-dimethylpyrazol-4-yl)-2-[[6-[(6-methylpyrimidin-4-yl)amino]pyrimidin-4-yl]amino]-3-pyridyl]-N-methyl-methanesulfonamide]	37%	–	–
< 10 nM	< 0.2 nM	Cc1cc(Nc2cc(Nc3ncc(-c4cnn(C)c4C)cc3S(C)(=O)=O)ncn2)nc(C)n1 [Example 137, N4-[5-(1,5-dimethylpyrazol-4-yl)-3-methylsulfonyl-2-pyridyl]-N6-(2,6-dimethylpyrimidin-4-yl)pyrimidine-4,6-diamine]	–	–	0%
> 1000 nM	< 0.2 nM	Cc1cc(Nc2cc(Nc3ccccc3N(C)S(C)(=O)=O)ncn2)nc(C)n1 [Example 12, N-[2-[[6-[(2,6-dimethylpyrimidin-4-yl)amino]pyrimidin-4-yl]amino]phenyl]-N-methyl-methanesulfonamide]	46%	–	–
10 to 100 nM	0.2 to 1 nM	COc1c(C)cccc1Nc1cc(Nc2cc(C)nc(C)n2)ncn1 [Example 6, N6-(2,6-dimethylpyrimidin-4-yl)-N4-(2-methoxy-3-methyl-phenyl)pyrimidine-4,6-diamine]	62%	–	–
< 10 nM	< 0.2 nM	Cc1c(-c2cnc(Nc3cc(Nc4ccc(F)cn4)ncn3)c(N(C)S(C)(=O)=O)c2)cnn1C [Example 138, N-[5-(1,5-dimethylpyrazol-4-yl)-2-[[6-[(5-fluoro-2-pyridyl)amino]pyrimidin-4-yl]amino]-3-pyridyl]-N-methyl-methanesulfonamide]	6%	–	–
< 10 nM	< 0.2 nM	Cc1c(-c2cnc(Nc3cc(NC(=O)C4CC4)ncn3)c(N(C)S(C)(=O)=O)c2)cnn1C [Example 139, N-[6-[[5-(1,5-dimethylpyrazol-4-yl)-3-[methyl(methylsulfonyl)amino]-2-pyridyl]amino]pyrimidin-4-yl]cyclopropanecarboxamide]	28%	–	–
< 10 nM	< 0.2 nM	Cc1cc(Nc2cc(Nc3ncccc3S(C)(=O)=O)ncn2)nc(C)n1 [Example 125, N4-(2,6-dimethylpyrimidin-4-yl)-N6-(3-methylsulfonyl-2-pyridyl)pyrimidine-4,6-diamine]	46%	–	–
< 10 nM	< 0.2 nM	Cc1cc(Nc2cc(Nc3ccc(-c4cnn(C)c4C)cc3N(C)S(C)(=O)=O)ncn2)nc(C)n1 [Example 25, N-[5-(1,5-dimethylpyrazol-4-yl)-2-[[6-[(2,6-dimethylpyrimidin-4-yl)amino]pyrimidin-4-yl]amino]phenyl]-N-methyl-methanesulfonamide]	57%	–	–
< 10 nM	< 0.2 nM	Cc1cc(Nc2cc(Nc3ncc(-c4cnn(C)c4)cc3N(C)S(C)(=O)=O)ncn2)nc(C)n1 [Example 126, N-[2-[[6-[(2,6-dimethylpyrimidin-4-yl)amino]pyrimidin-4-yl]amino]-5-(1-methylpyrazol-4-yl)-3-pyridyl]-N-methyl-methanesulfonamide]	–	–	54%
< 10 nM	< 0.2 nM	CN(c1ccccc1Nc1cc(Nc2cccc(C#N)n2)ncn1)S(C)(=O)=O [Example 32, N-[2-[[6-[(6-cyano-2-pyridyl)amino]pyrimidin-4-yl]amino]phenyl]-N-methyl-methanesulfonamide]	70%	–	–
< 10 nM	< 0.2 nM	Cc1cc(Nc2cc(Nc3ccc(C4CCCO4)cc3N(C)S(C)(=O)=O)ncn2)nc(C)n1 (stereo not shown) [Example 114, N-[2-[[6-[(2,6-dimethylpyrimidin-4-yl)amino]pyrimidin-4-yl]amino]-5-tetrahydrofuran-2-yl-phenyl]-N-methyl-methanesulfonamide]	–	–	–
< 10 nM	< 0.2 nM	Cc1cc(Nc2cc(Nc3ccc(-c4cnn(C)c4C)cc3S(C)(=O)=O)ncn2)nc(C)n1 [Example 86, N4-[4-(1,5-dimethylpyrazol-4-yl)-2-methylsulfonyl-phenyl]-N6-(2,6-dimethylpyrimidin-4-yl)pyrimidine-4,6-diamine]	–	–	78%
10 to 100 nM	< 0.2 nM	Cc1cc(Nc2cc(Nc3ncc(-c4cn(C)cn4)cc3N(C)S(C)(=O)=O)ncn2)nc(C)n1 [Example 147, N-[2-[[6-[(2,6-dimethylpyrimidin-4-yl)amino]pyrimidin-4-yl]amino]-5-(1-methylimidazol-4-yl)-3-pyridyl]-N-methyl-methanesulfonamide]	–	–	–
